For test [1], the system named is rat. Kind of test: Rat tail flick assay (tail flick latency in response to heat). The settings on record: read-out: % MPE (Maximum Possible Effect), tail flick. It counts as in vivo. The source says: The Tail Flick Assay, based upon the methods of D'Amour & Smith (J. Pharmacol. Exp. Therap., 72: 74-79, 1941), is used to measure loss of pain sensation in the rat tail, allowing the experimenter to screen drugs for analgesic effect. Since then, the method has been used in a number of publications. For example, it was used to evaluate the analgesic effect of O-alkyl derivatives of tramadol by Liming Shao and Michael Hewitt etc. (Boiorganic & Medicinal Chemistry Letters, 18:1674-1680, 2008).
A Tail Flick Unit is used to measure tail flick latency in response to heat. The unit consists of an infrared (I.R.) source (50 W bulb) with adjustable intensity that is focused through a flush mounted window on the upper panel of the unit and onto the rat tail. Once I.R. source is focused on the rat tail and turned on, a timer starts. When the thermal threshold for pain is reached and the rat flicks its tail, the I.R source automatically shuts off and the timer stop, displaying the latency time.
On the day of experiment, the animals are tested to determine baseline latency. Each rat is given one test to determine latency to tail flick with a cut off 10 seconds. Baselines are recorded and those animals with a baseline latency of 2-5 seconds are used in the experiment. Animals are divided into several groups according to the baseline latency. The Tail-flick latencies are measured at different timepoints for up to 180 minutes after administration of vehicle or test articles. If treatment group continues to display pain control after 180 minutes, additional measurements are taken every 60 minutes until pain control is no longer observed.
I.R. Source is set at 40 units (determined to elicit tail flick response in desired 2-5 seconds in naïve animals).
Test articles or vehicle are administered by intravenous (IV) injection through the tail vein or by oral gavage at time 0. Animals are gently restrained and held on top of a tail flick unit. The tail is then wiped clean with a cotton square and placed over the I.R. source so that the beam is focused at approximately midway the length of the tail. After the rat is in position, the I.R. source is turned on. When the thermal threshold for pain is reached, the rat flicked its tail and the I.R. source automatically shuts off. Latency time (in seconds) is then recorded.
Data are recorded and graphed as % MPE (Maximum Possible Effect). % MPE is calculated using the following formula: % MPE=[(Test latency−Baseline latency)/(Cut off latency(10 sec.'s)−Baseline latency)]*100
Compounds were administered by the IV route in 20% 2-hydroxypropyl-beta-cyclodextrin (20% HP-β-CD). The dose levels of test article were 2.5, 5, or 20 mg/kg. Examples 2, 3, 13, 40, 77, 78, 114, and Tramadol provided at least 50% MPE at 20 mg/kg. Compounds 5, 8, 17, 105, 107, 148, 158, and 159 provided at least 50% MPE at 5 mg/kg. Compounds 82, 84, and 116 provided at least 50% MPE at 2.5 mg/kg.
Compounds were administered by oral gavage in 0.5% methylcellulose at 20 or 30 mg/kg. Examples 2, 3, 13, 115, and Tramadol provided at least 50% MPE at 30 mg/kg. Compounds 5, 39, 65, 106, and 115 provided at least 50% MPE at 20 mg/kg.
On the technique in general: Thermal pain tests record how soon the animal reacts.

Test [2] is described as follows: Unspecified bioassay(s). Conditions: comparison of the two enantiomers of Example 181.
Setting [3] is: oral gavage in 0.5% methylcellulose.

Consider 24 compounds from patent US8802728B2, “Analgesic compounds, methods, and formulations” (Eli Lilly and Company, priority 2011, dated 2014).

Structures can show the parent of a compound that is named as a salt. Where two headings read alike, the source gives them in different places.

In the case of `CN(C)C[C@H]1[C@@H]2CC[C@@H](C2)C[C@H]1c1cc(O)cc(F)c1` (stereo in doubt) [Example 116, 3-(2-dimethylaminomethyl-bicyclo[3.2.1]oct-3-yl)-5-fluoro-phenol], the inhibition in vivo at 2.5 mg/kg in test [1] (IV in 20% HP-β-CD) is not below 50%.

Turning to `CN(C)C[C@H]1CC[C@@H]2C[C@@H]2[C@]1(O)c1cc(O)ccc1F` (stereo in doubt) [Example 158, 3-Dimethylaminomethyl-2-(2-fluoro-5-hydroxy-phenyl)-bicyclo[4.1.0] heptan-2-ol], in test [1] (IV in 20% HP-β-CD), the inhibition in vivo at 5 mg/kg was not below 50%.

For `COc1ccc(F)c([C@@]2(O)C[C@H]3CC[C@H](C3)[C@@H]2CN(C)C)c1` [Example 17, 2-Dimethylamino-methyl-3-(2-fluoro-5-methoxy-phenyl)-bicyclo[3.2.1]octan-3-ol hydrochloride], the inhibition in vivo at 5 mg/kg in test [1] (IV in 20% HP-β-CD) is not below 50%.

Take `CN(C)C[C@@H]1C(c2cc(F)cc(OC(=O)C(C)(C)C)c2)=C[C@H]2CC[C@@H]1C2` [Example 107, 2,2-Dimethyl-propionic-acid 3-(4-dimethyl-aminomethyl-bicyclo[3.2.1]oct-2-en-3-yl)-5-fluoro-phenyl ester]: the inhibition in vivo at 5 mg/kg in test [1] (IV in 20% HP-β-CD) was not below 50%. On to `COc1ccc(F)c([C@@]2(O)C[C@H]3CC[C@H](C3)[C@@H]2CN(C)C)c1` (stereo in doubt) [Example 5, 2-Dimethylaminomethyl-3-(2-fluoro-5-methoxy-phenyl)-bicyclo[3.2.1]octan-3-ol], for which the inhibition in vivo at 20 mg/kg in test [1] (setting [3]) was not below 50%. Regarding `COc1cc(F)cc([C@@]2(O)C[C@H]3CC[C@H](C3)[C@@H]2CN(C)C)c1` (stereo in doubt) [Example 3, 2-Dimethylaminomethyl-3-(3-fluoro-5-methoxy-phenyl)-bicyclo[3.2.1]octan-3-ol], in test [1] (IV in 20% HP-β-CD), the inhibition in vivo at 20 mg/kg is not below 50%. The inhibition in vivo at 30 mg/kg in test [1] (setting [3]) is not below 50%.

With `CN(C)C[C@H]1[C@H]2CC[C@H](C2)C[C@]1(O)c1cccc(O)c1` [(+)-Enantioisomers, (+)-(1S,2R,3R,5R)-2-((dimethylamino)methyl)-3-(3-hydroxyphenyl)bicyclo[3.2.1]octan-3-ol], in test [2], the “biological activity in bioassay(s)” value is reported as “better biological activity than (−)-enantioisomer”. Consider `CN(C)C[C@H]1[C@@H]2CC[C@@H](C2)C[C@]1(O)c1cccc(O)c1` (stereo in doubt) [Example 13, 2-Dimethylaminomethyl-3-(3-hydroxy-phenyl)-bicyclo[3.2.1]octan-3-ol], for which the inhibition in vivo at 20 mg/kg in test [1] (IV in 20% HP-β-CD) was not below 50%. In test [1] (setting [3]), the inhibition in vivo at 30 mg/kg was not below 50%. As for `Cc1cc(O)cc([C@]2(O)[C@@H](CN(C)C)CC[C@@H]3C[C@@H]32)c1` (stereo in doubt) [Example 159, 3-Dimethylaminomethyl-2-(3-hydroxy-5-methyl-phenyl)-bicyclo[4.1.0] heptan-2-ol], the inhibition in vivo at 5 mg/kg in test [1] (IV in 20% HP-β-CD) is not below 50%. Turning to `CN(C)C[C@@H]1C(c2cc(O)ccc2F)=C[C@H]2CC[C@@H]1C2` (stereo in doubt) [Example 84, 3-(4-Dimethylaminomethyl-bicyclo[3.2.1]oct-2-en-3-yl)-4-fluoro-phenol], the inhibition in vivo at 2.5 mg/kg in test [1] (IV in 20% HP-β-CD) is not below 50%. With `COc1cccc(C2(O)CCCCC2CN(C)C)c1` (centres unmarked) [Tramadol, reference compound], the inhibition in vivo at 20 mg/kg in test [1] (IV in 20% HP-β-CD) was not below 50%. Moreover, the inhibition in vivo at 30 mg/kg in test [1] (setting [3]) is not below 50%. For `COc1cccc([C@]2(O)[C@@H](CN(C)C)CC[C@@H]3C[C@@H]32)c1` (stereo in doubt) [Example 148, 3-Dimethylaminomethyl-2-(3-methoxy-phenyl)-bicyclo[4.1.0] heptan-2-ol], the inhibition in vivo at 5 mg/kg in test [1] (IV in 20% HP-β-CD) was not below 50%. As to `CN(C)C[C@@H]1C(c2cccc(O)c2)=C[C@@H]2CC[C@H]1C2` (stereo in doubt) [Example 77, 3-(4-dimethylaminomethyl-bicyclo[3.2.1]oct-2-en-3-yl)-phenol], in test [1] (IV in 20% HP-β-CD), the inhibition in vivo at 20 mg/kg was not below 50%. Regarding `CN(C)C[C@H]1C2CC[C@@H](C2)C[C@]1(O)c1cc(O)ccc1F` (stereo in doubt) [Example 39, 2-dimethylaminomethyl-3-(2-fluoro-5-hydroxy-phenyl)-bicyclo[3.2.1]octan-3-ol], the inhibition in vivo at 20 mg/kg in test [1] (setting [3]) is not below 50%. The same measure, in the same setting: under `CN(C)C[C@H]1C2CC[C@@H](C2)C[C@]1(O)c1cc(OC(=O)C(C)(C)C)ccc1F` [Example 65, 2,2-dimethyl-propionic acid 3-(2-dimethylaminomethyl-3-hydroxy-bicycle[3.2.1]oct-3-yl)-4-fluoro-phenyl ester] stands not below 50%. Take `CN(C)C[C@@H]1C(c2cccc(OC(=O)C(C)(C)C)c2)=C[C@@H]2CC[C@H]1C2` (stereo in doubt) [Example 105, 2,2-dimethyl-propionic acid 3-(4-dimethylaminomethyl-bicyclo[3.2.1]oct-2-en-3-yl)-phenyl ester]: in test [1] (IV in 20% HP-β-CD), the inhibition in vivo at 5 mg/kg is not below 50%. In the case of `CN(C)C[C@H]1[C@H]2CC[C@H](C2)C[C@H]1c1cccc(O)c1` (stereo in doubt) [Example 114, 3-(2-dimethylaminomethyl-bicyclo[3.2.1]oct-3-yl)-phenol], in test [1] (IV in 20% HP-β-CD), the inhibition in vivo at 20 mg/kg was not below 50%.

Regarding `CN(C)C[C@@H]1C(c2cccc(OC(=O)c3ccccc3)c2)=C[C@H]2CC[C@@H]1C2` (stereo in doubt) [Example 106, Benzoic acid 3-(4-dimethylaminomethyl-bicyclo[3.2.1]oct-2-en-3-yl)-phenyl ester], the inhibition in vivo at 20 mg/kg in test [1] (setting [3]) was not below 50%. For the compound `COc1cccc([C@@H]2C[C@H]3CC[C@H](C3)[C@@H]2CN(C)C)c1` (stereo in doubt) [Example 115, [3-(3-methoxy-phenyl)-bicyclo[3.2.1]oct-2-ylmethyl]-dimethyl-amine], in test [1] (setting [3]), the inhibition in vivo at 20 mg/kg was not below 50% and the inhibition in vivo at 30 mg/kg was not below 50%. In the case of `COc1cccc([C@@]2(O)C[C@H]3CCC(C3)[C@@H]2CN(C)C)c1` (stereo in doubt) [Example 2, 2-dimethylaminomethyl-3-(3-methoxy-phenyl)-bicyclo[3.2.1]octan-3-ol], in test [1] (IV in 20% HP-β-CD), the inhibition in vivo at 20 mg/kg is not below 50%. Besides, the inhibition in vivo at 30 mg/kg in test [1] (setting [3]) is not below 50%. For `COc1cc(C)cc([C@@]2(O)C[C@H]3CC[C@H](C3)[C@@H]2CN(C)C)c1` (stereo in doubt) [Example 8, 2-Dimethylaminomethyl-3-(3-methoxy-5-methyl-phenyl)-bicyclo[3.2.1]octan-3-ol], the inhibition in vivo at 5 mg/kg in test [1] (IV in 20% HP-β-CD) was not below 50%. With `COc1cccc(C2=C[C@H]3CC[C@H](C3)[C@@H]2CN(C)C)c1` (stereo in doubt) [Example 78, [3-(3-Methoxy-phenyl)-bicyclo[3.2.1]oct-3-en-2-ylmethyl]-dimethyl-amine], the inhibition in vivo at 20 mg/kg in test [1] (IV in 20% HP-β-CD) is not below 50%.

Take `CN(C)C[C@H]1[C@@H]2CC[C@@H](C2)C[C@]1(O)c1cc(O)cc(F)c1` (stereo in doubt) [Example 40, 2-Dimethylaminomethyl-3-(3-fluoro-5-hydroxy-phenyl)-bicyclo[3.2.1]octan-3-ol]: in test [1] (IV in 20% HP-β-CD), the inhibition in vivo at 20 mg/kg was not below 50%. For `CN(C)C[C@@H]1C(c2cc(O)cc(F)c2)=C[C@H]2CC[C@@H]1C2` (stereo in doubt) [Example 82, 3-(4-Dimethylaminomethyl-bicyclo[3.2.1]oct-2-en-3-yl)-5-fluoro-phenol], the inhibition in vivo at 2.5 mg/kg in test [1] (IV in 20% HP-β-CD) is not below 50%.
